Source: PubChem BioAssay (NCI)
“And” between values parts separate entries of the source, which are not always exact repeats. Identical values can stand only once.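 Interpolation was linear, between the two tested concentrations surrounding the appropriate level; five concentrations were tested over 48 hours in 96-well plates. The concentration for 50% growth inhibition is given as GI50. At the TGI there is no net growth.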

What was measured:
Test in all cases: growth of human tumour cells (NCI), 48 h
[1] = test system: HCT-15 colon
[2] = test system: HOP-92 NSCLC
[3] = test system: IGROV1 ovarian
[4] = test system: K-562 leukemia
[5] = test system: MDA-MB-435
[6] = test system: SK-MEL-2 melanoma
[7] = test system: SK-OV-3 ovarian
[8] = test system: SNB-75 CNS
[9] = test system: U251 CNS
[10] = test system: UACC-257 melanoma

SMILES | TGI [1] [µM] | TGI [2] [µM] | TGI [3] [µM] | TGI [4] [µM] | TGI [5] | TGI [6] [µM] | TGI [7] [µM] | TGI [8] [µM] | TGI [9] [µM] | TGI [10] [µM] | GI50 [1] [µM] | GI50 [2] [µM] | GI50 [3] [µM] | GI50 [4] [µM] | GI50 [5] [µM] | GI50 [6] [µM] | GI50 [7] [µM] | GI50 [8] [µM] | GI50 [9] [µM] | GI50 [10] [µM]
NC(=O)NCCSC1CCCCC1O (stereo not drawn) | > 100 | > 100 | > 100 | > 100 | > 100 µM | > 100 | > 100 | > 100 | > 100 | > 100 | – | – | – | – | – | – | – | – | – | –
CN1CCC(n2[nH]c(-c3ccccc3)c(Cc3ccccc3)c2=O)CC1 | > 100 | > 100 | > 100 | > 100 | > 100 µM | > 100 | > 100 | > 100 | > 100 | > 100 | – | – | – | – | – | – | – | – | – | –
COC(=O)[C@@H]1CCCN1C(=O)[C@H]1CCCN1C(=O)[C@@H](Cc1c[nH]c2ccccc12)NC(=S)Nc1cc(C(F)(F)F)cc(C(F)(F)F)c1 | 12.8 | 3.43 | 6.73 | 12.2 | 9.07 µM | 3.98 | 18.9 | 6.75 | 4.52 | 6.99 | 3.35 | 1.12 | 2.59 | 3.73 | 2.9 | 2.14 | 6.56 | 1.4 | 1.92 | 2.5
Cc1ccc(F)cc1NC(=O)c1cc(Cl)ccc1Nc1ccccc1 | > 100 | > 100 | > 100 | > 100 | > 100 µM | > 100 | > 100 | > 100 | > 100 | > 100 | > 100 | 32 | > 100 | 67.6 | > 100 | > 100 | > 100 | 22.7 | > 100 | > 100
Cc1ccccc1C(C(=O)NC1CCCCC1)N(C(=O)Cn1ccnc1C)c1cccc(F)c1 (stereo not drawn) | > 100 | > 100 | > 100 | > 100 | > 100 µM | 79.3 | > 100 | 59.1 | > 100 | > 100 | > 100 | 20 | > 77 | > 100 | > 100 | 21.3 | > 65.4 | 15.6 | > 52.1 | > 100
CCN1CCC(CC(=O)Nc2n[nH]c3nc(-c4cccs4)c(Br)cc23)CC1 | > 20.6 | > 25 | > 25 | > 19.2 | 14.5 µM | 11.4 | > 25 | > 20.4 | 19.4 | 10.8 | 6.89 | > 24.1 | 12.8 | 7.61 | 5.35 | 6.24 | 9.24 | 2.34 | 6.78 | 5.58
COc1ccc(-c2cc(-c3nnc(SCC(=O)Nc4ccc(C(C)=O)cc4)o3)c3ccccc3n2)cc1 | > 100 | 37.5 | > 100 | > 100 | > 100 µM | > 100 | 91.6 | 22.6 | 55.9 | > 100 | > 100 | 9.1 | 20.2 | > 100 | > 100 | 30.4 | 27 | 3.65 | 10.2 | > 100
N#C[C@H]1Nc2ccccc2[C@@H](O)C1O (stereo partly drawn) | > 100 | > 100 | > 100 | > 100 | > 100 µM | > 100 | > 100 | > 100 | > 100 | > 100 | – | – | – | – | – | – | – | – | – | –
CCC(=O)c1ccc2c(c1)N(CCCN1CCN(CCO)CC1)c1ccccc1S2 | 28.3 | 15.2 | 29.1 | 9.83 | 12.3 µM | 33.4 | 31.6 | 27 | 27.9 | 7.97 | 9.88 | 3.43 | 12.4 | 3.24 | 3.24 | 17.7 | 16.8 | 13.5 | 13.2 | 2.86
CC[C@@]1(O)C(=O)OCc2c1cc1n(c2=O)Cc2cc3c(NC(=O)CN)cccc3nc2-1 | > 100 | > 100 | > 100 | > 100 | 17.3 µM | 14.8 | 25.3 | 0.693 | 5.16 | 13.2 | – | – | – | – | – | – | – | – | – | –
COc1cc(/C=C2\C(=O)Nc3ccccc32)cc(OC)c1OC | > 100 | 71.7 | > 100 | > 100 | 45.1 µM | 82.6 | > 100 | 58.7 | 63.5 | 54 | 11.6 | 20.8 | 20 | 4.48 | 4.1 | 17.5 | 26.1 | 15 | 10.9 | 8.81
COc1cc2ncn(-c3cc(OCc4ccccc4S(C)(=O)=O)c(C#N)s3)c2cc1OC | > 25 | > 25 | > 25 | > 25 | > 25 µM | > 25 | > 25 | > 22.6 | > 25 | > 25 | > 25 | > 14.2 | > 25 | > 25 | > 25 | > 23.4 | > 16.1 | 8.19 | > 22.3 | > 25
CO/C(=N\N=C\c1cccc(C(F)(F)F)c1)c1ccncc1 | 68.2 | > 100 | 79.3 | > 100 | 6.17 µM and 25.5 µM | > 100 | 99.1 | 52.9 | 80.2 | > 100 | 4.54 | – | – | 3.08 | 3.33 | 22.6 | – | – | – | –
Cc1ccc2nc(N/N=C/c3cccc(C)n3)cc(C)c2c1 | 52.7 | 37.2 | 32 | > 100 | 32 µM | 34.8 | 30.2 | 36.6 | 33.4 | 31.8 | – | – | – | – | – | – | – | – | – | –
CN(C)S(=O)(=O)c1ccc(Nc2ccc(O)c3c2C(=O)c2c([N+](=O)[O-])ccc(O)c2C3=O)cc1 | > 100 | > 100 | > 100 | > 100 | > 100 µM | > 100 | > 100 | > 100 | > 100 | > 100 | – | – | – | – | – | – | – | – | – | –
COc1ccc2c(c1)C(=O)c1c-2n(CCCN2CCOCC2)c(=O)c2cc([N+](=O)[O-])ccc12 | 13.3 | < 0.01 | 25.7 | > 37 | 11 µM | 3.95 | 14.5 | – | 0.0598 | 3.08 | < 0.0151 | < 0.01 | < 0.01 | < 0.01 | < 0.01 | 0.0763 | < 0.01 | < 0.01 | < 0.01 | 0.0504
O=C1CC/C(=C\COc2ccc3ccc(=O)oc3c2)O1 | 17.1 | 25.5 | 17.8 | > 100 | 17.5 µM | 36.8 | > 100 | 30.2 | 22.8 | 30 | 3.84 | 10.6 | 4.2 | 9.89 | 3.41 | 10.9 | 27.8 | 12.7 | 10.3 | 13.6
COc1ccc(-n2c(C)nc3c(c(C)nn3-c3ccccc3)c2=O)cc1 | > 100 | 29.3 | > 100 | > 68.1 | 0.116 µM | > 100 | > 100 | > 100 | > 100 | 75.1 | 0.0483 | 0.433 | 0.0701 | 0.0356 | 0.0305 | 0.516 | 1.08 | 0.0276 | 0.0614 | 5.82
